The target in this assay is Dipeptidyl peptidase 4 (Homo sapiens, UniProt P27487). Kind of assay: Inhibitory activity against hydrolysis of Gly-Pro-pNa by CD26 (Dipeptidyl peptidase IV) purified from CEM H01 cells. It is filed as cell-free, CCRF-CEM.

Each structure is given as a SMILES string.

Usually IC50 stands for the concentration that gives 50% inhibition. A high value points to weaker potency in that assay.

Sequence of Dipeptidyl peptidase 4 (P27487 whole entry): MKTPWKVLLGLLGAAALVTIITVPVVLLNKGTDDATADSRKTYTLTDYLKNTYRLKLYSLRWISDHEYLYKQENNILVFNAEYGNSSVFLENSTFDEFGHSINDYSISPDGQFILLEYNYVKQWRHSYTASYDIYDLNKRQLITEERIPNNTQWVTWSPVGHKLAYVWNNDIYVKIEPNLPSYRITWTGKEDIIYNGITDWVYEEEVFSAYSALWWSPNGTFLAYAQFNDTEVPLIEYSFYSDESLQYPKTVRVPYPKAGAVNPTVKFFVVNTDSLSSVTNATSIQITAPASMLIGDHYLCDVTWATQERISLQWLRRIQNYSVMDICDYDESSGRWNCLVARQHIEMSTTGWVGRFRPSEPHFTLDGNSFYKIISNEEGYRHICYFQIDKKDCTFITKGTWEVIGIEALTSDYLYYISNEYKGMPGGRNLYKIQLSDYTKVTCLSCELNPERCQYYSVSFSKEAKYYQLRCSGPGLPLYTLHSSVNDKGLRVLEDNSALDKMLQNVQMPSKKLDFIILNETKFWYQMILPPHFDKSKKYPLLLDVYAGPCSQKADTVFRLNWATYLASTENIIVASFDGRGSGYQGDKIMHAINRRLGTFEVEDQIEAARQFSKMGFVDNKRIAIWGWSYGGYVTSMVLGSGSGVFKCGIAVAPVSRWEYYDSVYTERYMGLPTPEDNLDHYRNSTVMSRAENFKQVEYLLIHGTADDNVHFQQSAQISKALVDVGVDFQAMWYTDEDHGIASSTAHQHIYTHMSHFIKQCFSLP

The compound `CCCCCCCC[S+](CCCCCCCC)Cc1ccc2cc1C(=O)NCC(=O)NCC(=O)NCCCC[C@H](N)C(=O)N1CCC[C@H]1C(=O)N2` came in with an IC50 of 30 nM.

These data come from ChEMBL document CHEMBL1131574, “Specific and irreversible cyclopeptide inhibitors of dipeptidyl peptidase IV activity of the T-cell activation antigen CD26” (J Med Chem, 1998).
